How the values were obtained:
[1] = human
[2] = human; remark: listed apart in the source
[3] = Highest frequency of acute liver toxicity observed during clinical trials, expressed as a percentage. [column '% AIGUE' in source]; conditions: human
[4] = human; remark: listed apart in the source
[5] = human; remark: listed apart in the source
[6] = Highest frequency of moderate liver toxicity observed during clinical trials, expressed as a percentage. [column '% BIOL' in source]; conditions: human
[7] = Times to onset, minimal and maximal, observed in the indexed observations. [column 'DELAI' in source]; conditions: human
[8] = human, serum
[9] = human; remark: listed apart in the source
[10] = Proposed mechanism(s) of liver damage. [column 'MEC' in source]; conditions: human
[11] = human; remark: listed apart in the source
[12] = human; remark: listed apart in the source
[13] = Presence of at least one case with successful reintroduction. [column 'REINT' in source]; conditions: human
[14] = human; remark: listed apart in the source
[15] = human, serum, 4383 h
[16] = human; remark: listed apart in the source
[17] = human, serum; remark: listed apart in the source
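For Hepatotoxicity (association with vascular disease) in this document: count of indexed literature references reporting vascular liver injury in humans, e.g. peliosis hepatitis, hepatic veno-occlusive disease or Budd-Chiari syndrome.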
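For Hepatotoxicity (benign tumour) in this document: value is a count of indexed literature references citing a benign tumour confirmed by histopathology.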
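For Hepatotoxicity (choleostasis) in this document: human cholestatic liver injury, shown by histopathology or by peak ALT or AST elevation over alkaline phosphatase ratio below 2, value counts indexed literature reports.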
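For Hepatotoxicity (chronic liver disease) in this document: chronic liver injury confirmed by histopathology or persistently raised serum aminotransferase activity beyond 6 months, value given as the count of indexed literature references.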
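For Hepatotoxicity (cirrhosis) in this document: value is a count of indexed literature references reporting cirrhosis confirmed by histopathology.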
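For Hepatotoxicity (cytolytic) in this document: human cytolytic liver injury, shown by histopathology or by a ratio above 5 of peak ALT or AST elevation to alkaline phosphatase elevation, value counts indexed references.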
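For Hepatotoxicity (granulomatous hepatitis) in this document: value is a count of indexed literature references reporting granulomatous liver disease confirmed by histopathology.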
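For Hepatotoxicity (malignant tumour) in this document: malignant tumour confirmed by histopathology, value gives the count of indexed literature references reporting it.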
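For Hepatotoxicity (severe hepatitis) in this document: human clinical data: severe hepatitis, meaning potentially life-threatening liver failure or clinically observed cases, the value counts how many indexed literature references report it.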
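For Hepatotoxicity (steatosis) in this document: steatosis confirmed by histopathology, value is the count of indexed references.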

Compound	Hepatotoxicity (association with vascular disease) [1]	Hepatotoxicity (severe hepatitis) ([2]; Liver)	Hepatotoxicity (acute) ([3]; Liver) [%]	Hepatotoxicity (moderate) ([6]; Liver) [%]	Hepatotoxicity (time to onset) [7]	Hepatotoxicity (moderate) [8]	Hepatotoxicity (benign tumour) [9]	Hepatotoxicity (cirrhosis) [11]	Hepatotoxicity (malignant tumour) [12]	Hepatotoxicity (successful reintroduction) [13]	Hepatotoxicity (steatosis) [14]	Hepatotoxicity (chronic liver disease) [15]	Hepatotoxicity (acute) [17]	Hepatotoxicity (severe hepatitis) [2]	Hepatotoxicity (acute) [3] [%]	Hepatotoxicity (granulomatous hepatitis) [4]	Hepatotoxicity (cytolytic) [5]	Hepatotoxicity (moderate) [6] [%]	Hepatotoxicity (mechanism) [10]	Hepatotoxicity (choleostasis) [16]	other results
CCN(CC)Cc1cc(Nc2ccnc3cc(Cl)ccc23)ccc1O.Cl	0	8	6.7	0	1 week - 1 year	2	0	1	0	yes	0	0	18	–	–	–	–	–	–	–	Hepatotoxicity (granulomatous hepatitis) ([4]; Liver): 0; Hepatotoxicity (cytolytic) ([5]; Liver): 11; Hepatotoxicity (mechanism) ([10]; Liver): Allergic, Dose-dependant, Reactive metabolite; Hepatotoxicity (choleostasis) ([16]; Liver): 4
CCc1nc(N)nc(N)c1-c1ccc(Cl)cc1.COc1ncnc(NS(=O)(=O)c2ccc(N)cc2)c1OC	0	–	–	–	1 day - 3 months	11	0	0	0	yes	0	0	14	3	23.5	2	5	22.5	Allergic	4	–
CCOC(N)=O	3	–	–	–	1 year - 2 years	0	0	1	0	yes	0	0	5	4	0	0	5	0	Dose-dependant	1	–
CCCC(=O)Nc1ccc(OCC(O)CNC(C)C)c(C(C)=O)c1 (centres undefined) [ACEBUTOLOL]	0	0	0	0	1 day - 1 month	0	0	0	0	yes	0	0	–	–	–	0	1	–	Allergic	1	–
CCCSc1ccc2nc(NC(=O)OC)[nH]c2c1 [ALBENDAZOLE]	0	0	5	100	1 week - 6 months	25	0	0	0	yes	0	0	8	–	–	0	3	–	Reactive metabolite	2	–
NCC(=O)CCC(=O)O [AMINOLEVULINIC ACID]	0	–	–	–	3 days	7	0	0	0	yes	0	0	0	0	0	0	0	66.7	Dose-dependant	0	–
Nc1ccc(C(=O)O)c(O)c1 [AMINOSALICYLIC ACID]	0	–	–	–	2 weeks - 2 months	6	0	0	0	yes	0	0	17	6	6.4	0	11	35.3	Allergic	9	–
O=C(O)COc1nn(Cc2ccccc2)c2ccccc12 [BENDAZAC]	0	0	0	0	3 weeks - 3.5 years	0	0	0	0	yes	0	0	6	–	–	–	–	–	–	–	Hepatotoxicity (granulomatous hepatitis) ([4]; Liver): 0; Hepatotoxicity (cytolytic) ([5]; Liver): 3; Hepatotoxicity (mechanism) ([10]; Liver): Allergic; Hepatotoxicity (choleostasis) ([16]; Liver): 2
CC(C)C[C@H]1C(=O)N2CCC[C@H]2[C@]2(O)O[C@](NC(=O)[C@@H]3C=C4c5cccc6[nH]c(Br)c(c56)C[C@H]4N(C)C3)(C(C)C)C(=O)N12 [BROMOCRIPTINE]	0	–	–	–	4 days - 2 months	6	0	0	0	yes	0	0	2	0	0	0	2	22	Dose-dependant	0	–
CO[C@]12CC[C@@]3(C[C@@H]1[C@](C)(O)C(C)(C)C)[C@H]1Cc4ccc(O)c5c4[C@@]3(CCN1CC1CC1)[C@H]2O5 [BUPRENORPHINE]	0	–	–	–	2 days - 3 months	1	0	0	0	yes	0	0	3	2	0	0	2	71	Allergic, Overdose	0	–
CN1C(=O)CCS(=O)(=O)C1c1ccc(Cl)cc1 (centres undefined) [CHLORMEZANONE]	0	–	–	–	1 day - 4 weeks	0	0	0	0	yes	0	0	8	2	0	0	1	0	Allergic, Dose-dependant	7	–
COC(=O)[C@H](c1ccccc1Cl)N1CCc2sccc2C1 [CLOPIDOGREL]	0	0	0	3	4 days - 5.5 months	2	0	0	0	yes	0	0	5	–	–	–	–	–	–	–	Hepatotoxicity (granulomatous hepatitis) ([4]; Liver): 0; Hepatotoxicity (cytolytic) ([5]; Liver): 4; Hepatotoxicity (mechanism) ([10]; Liver): Allergic; Hepatotoxicity (choleostasis) ([16]; Liver): 1
Nc1nc2ccc(OC(F)(F)F)cc2s1 [RILUZOLE]	–	–	–	–	15 days - 9 months	5	0	0	0	yes	1	0	5	0	3.8	0	5	17	Dose-dependant	0	–

— ChEMBL document CHEMBL3137667, “[Drug-induced liver injury; fourteenth updated edition of the bibliographic database of liver injuries and related drugs]” (Gastroenterol Clin Biol, 2004)
